Measured values from patent US9593097B2, “Axl inhibitors” (Pfizer Inc., priority 2014, dated 2017).

Molecular target: Axl phosphorylation in 293MSR-AxlWT6 cells (Homo sapiens (Human), UniProt P30530)
Assay: Cellular Axl phosphorylation ELISA assay (Gas6-stimulated 293MSR-AxlWT6 cells)
Type: cell-based
Settings: Table 4A, read-out: CELL AXL IC50
Procedure: Cellular Axl Phosphorylation ELISA Assay
After 6-7 hrs in tissue culture incubator at 37° C. 5% CO2, medium was removed, serum-free medium was added (with 0.04% bovine serum albumin) and plates were returned to incubator where they remained overnight. […] Media was then removed and lysis buffer was added to wells and shaken at 4° C. for 30 min to generate protein lysates. Subsequently, phosphorylation of Axl was assessed by a sandwich ELISA method using a DuoSet IC Human Phospho-Axl ELISA assay kit (R&D System), an immobilized mouse anti-human Axl antibody and an anti-phospho-tyrosine-HRP antibody as a detection antibody. Antibody-coated plates were (a) incubated in presence of protein lysates at room temperature for 2 hrs, (b) washed seven times in 0.1% Tween 20 in PBS, (c) incubated with secondary antibody (a horseradish peroxidase-conjugated […]) for 2 hrs, (d) washed seven times again, (e) TMB peroxidase substrate (Bio-Rad) was added to initiate a colorimetric reaction and stopped by adding 0.2 N H2SO4, and (f) measured at OD 450 nm using a spectrophotometer. IC50 values were calculated by concentration-response curve fitting using a four-parameter analytic method and reported in μM.
For Table 4B, IC50 values were calculated by concentration-response curve fitting using a four-parameter analytic method and reported in nM.

Sequence of Axl phosphorylation in 293MSR-AxlWT6 cells (P30530 26-894): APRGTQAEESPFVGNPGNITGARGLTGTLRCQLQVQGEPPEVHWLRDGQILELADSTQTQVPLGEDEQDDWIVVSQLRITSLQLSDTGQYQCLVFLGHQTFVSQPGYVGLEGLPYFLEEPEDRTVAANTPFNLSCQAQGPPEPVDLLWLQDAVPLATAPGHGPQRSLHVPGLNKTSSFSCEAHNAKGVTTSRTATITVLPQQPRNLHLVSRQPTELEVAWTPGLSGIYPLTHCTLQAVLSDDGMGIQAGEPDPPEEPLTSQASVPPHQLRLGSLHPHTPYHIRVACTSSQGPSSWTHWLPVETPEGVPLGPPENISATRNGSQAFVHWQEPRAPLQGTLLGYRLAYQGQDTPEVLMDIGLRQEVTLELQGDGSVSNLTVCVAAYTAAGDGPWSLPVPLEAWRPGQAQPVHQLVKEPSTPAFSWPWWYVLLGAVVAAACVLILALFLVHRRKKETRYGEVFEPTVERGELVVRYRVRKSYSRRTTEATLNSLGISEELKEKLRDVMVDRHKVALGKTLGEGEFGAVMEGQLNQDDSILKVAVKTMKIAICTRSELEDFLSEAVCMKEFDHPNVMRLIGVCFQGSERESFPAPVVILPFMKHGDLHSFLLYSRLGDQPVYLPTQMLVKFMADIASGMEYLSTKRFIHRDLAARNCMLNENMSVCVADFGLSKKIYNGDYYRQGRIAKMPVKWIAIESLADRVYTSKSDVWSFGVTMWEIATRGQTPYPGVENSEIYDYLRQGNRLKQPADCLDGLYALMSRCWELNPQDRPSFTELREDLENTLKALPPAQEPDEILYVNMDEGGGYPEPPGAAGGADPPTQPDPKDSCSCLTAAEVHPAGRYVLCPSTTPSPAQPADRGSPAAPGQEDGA

IC50 | Compound
0.4 nM | COc1ccnc2[nH]cc(C3CCN(c4cc(C(=O)N[C@H](C)CO)nc(OC[C@H]5C[C@H]5C#N)n4)CC3)c12 [Example 377, 2-{[(1S,2R)-2-cyanocyclopropyl]methoxy}-N-[(2R)-1-hydroxypropan-2-yl]-6-[4-(4-methoxy-1H-pyrrolo[2,3-b]pyridin-3-yl)piperidin-1-yl]pyrimidine-4-carboxamide]
131 nM | C[C@H](CO)NC(=O)c1cc(N2CCC(c3n[nH]c4ncccc34)CC2)nc(OC[C@H]2C[C@H]2C#N)n1 [Example 43, 2-{[(1S,2R)-2-cyanocyclopropyl]methoxy}-N-[(2R)-1-hydroxypropan-2-yl]-6-[4-(1H-pyrazolo[3,4-b]pyridin-3-yl)piperidin-1-yl]pyrimidine-4-carboxamide]
6.98 nM | N#CC1(COc2nc(C(=O)NC34CC(C3)C4)nc(N3CCC(COc4cccnc4N)CC3)n2)CC1 [Example 90, 4-(4-{[(2-aminopyridin-3-yl)oxy]methyl}piperidin-1-yl)-N-(bicyclo[1.1.1]pent-1-yl)-6-[(1-cyanocyclopropyl)methoxy]-1,3,5-triazine-2-carboxamide]
24.7 nM | 6-{4-[(3-amino- 1H-indazol-4- yl)oxy]piperidin-1- yl}-N- (bicyclo[1.1.1]pent- 1-yl)-2-[(1- cyanocyclopropyl) methoxy] pyrimidine- 4-carboxamide [Example 19]
40.8 nM | C[C@@H](O)COc1nc(C(=O)NC23CC(C2)C3)cc(N2CCC(c3n[nH]c4ncccc34)CC2)n1 [Example 70, N-(bicyclo[1.1.1]pent-1-yl)-2-[(2R)-2-hydroxypropoxy]-6-[4-(1H-pyrazolo[3,4-b]pyridin-3-yl)piperidin-1-yl]pyrimidine-4-carboxamide]
228 nM | C[C@H](CO)Oc1nc(C(=O)NC23CC(C2)C3)cc(N2CCC(c3n[nH]c4ncccc34)CC2)n1 [Example 69, N-(bicyclo[1.1.1]pent-1-yl)-2-{[(2R)-1-hydroxypropan-2-yl]oxy}-6-[4-(1H-pyrazolo[3,4-b]pyridin-3-yl)piperidin-1-yl]pyrimidine-4-carboxamide]
12.4 nM | NC(=O)c1nc(C2CCN(c3cc(C(=O)NCC(F)(F)F)nc(OCC4CC4(F)F)n3)CC2)ccc1N (centres unmarked) [Example 5, 6-[4-(5-amino-6-carbamoylpyridin-2-yl)piperidin-1-yl]-2-[(2,2-difluoro-cyclopropyl)methoxy]-N-(2,2,2-trifluoroethyl) pyrimidine-4-carboxamide]
64.9 nM | N#CC1(COc2nc(C(=O)NCC(F)(F)F)nc(N3CCC(COc4cccnc4N)CC3)n2)CC1 [Example 91, 4-(4-{[(2-aminopyridin-3-yl)oxy]methyl}piperidin-1-yl)-6-[(1-cyanocyclopropyl)methoxy]-N-(2,2,2-trifluoroethyl)-1,3,5-triazine-2-carboxamide]
120 nM | C[C@H](CO)NC(=O)c1cc(N2CCC(c3n[nH]c4ncccc34)CC2)nc(OC[C@H]2CCOC2)n1 [Example 383, N-[(2R)-1-hydroxypropan-2-yl]-6-[4-(1H-pyrazolo[3,4-b]pyridin-3-yl)piperidin-1-yl]-2-[(3S)-tetrahydrofuran-3-ylmethoxy]pyrimidine-4-carboxamide]
0.24 nM | COc1ccnc2[nH]cc(C3CCN(c4nc(OC[C@H]5C[C@H]5C#N)nc(C(=O)NC5(C)CCC5)n4)CC3)c12 [Example 378, 4-{[(1S,2R)-2-cyanocyclopropyl]methoxy}-6-[4-(4-methoxy-1H-pyrrolo[2,3-b]pyridin-3-yl)piperidin-1-yl]-N-(1-methylcyclobutyl)-1,3,5-triazine-2-carboxamide]
3.84 nM | C[C@H](CO)NC(=O)c1cc(N2CCC(c3n[nH]c4ncccc34)CC2)nc(OCC2CC(F)(F)C2)n1 [Example 47, 2-[(3,3-difluoro-cyclobutyl)methoxy]-N-[(2R)-1-hydroxypropan-2-yl]-6-[4-(1H-pyrazolo[3,4-b]pyridin-3-yl)piperidin-1-yl]pyrimidine-4-carboxamide]
4.31 nM | C[C@H](CO)NC(=O)c1cc(N2CCC(c3n[nH]c4ncccc34)CC2)nc(OCC2CC2)n1 [Example 72, 2-(cyclopropyl-methoxy)-N-[(2R)-1-hydroxypropan-2-yl]-6-[4-(1H-pyrazolo[3,4-b]pyridin-3-yl)piperidin-1-yl]pyrimidine-4-carboxamide]
0.2 nM | COc1ccnc2[nH]cc(C3CCN(c4nc(OC[C@H]5C[C@H]5C#N)nc(C(=O)N[C@@H](C)C(F)(F)F)n4)CC3)c12 [Example 379, 4-{[(1S,2R)-2-cyanocyclopropyl]methoxy}-6-[4-(4-methoxy-1H-pyrrolo[2,3-b]pyridin-3-yl)piperidin-1-yl]-N-[(2S)-1,1,1-trifluoropropan-2-yl]-1,3,5-triazine-2-carboxamide]
59 nM | C[C@H](NC(=O)c1cc(N2CCC(c3cccc(C(N)=O)n3)CC2)nc(OCC2(C#N)CC2)n1)C(F)(F)F [Example 13, 6-[4-(6-carbamoylpyridin-2-yl)piperidin-1-yl]-2-[(1-cyanocyclopropyl)methoxy]-N-[(2S)-1,1,1-trifluoropropan-2-yl]pyrimidine-4-carboxamide]
30.5 nM | CC(CN(C)C)NC(=O)c1cc(N2CCC(c3ccc(N)c(C(N)=O)n3)CC2)nc(OCC2CC2)n1 (centres unmarked) [Example 34, 6-[4-(5-amino-6-carbamoylpyridin-2-yl)piperidin-1-yl]-2-(cyclopropyl-methoxy)-N-[1-(dimethylamino)propan-2-yl]pyrimidine-4-carboxamide]
0.72 nM | COc1ccnc2[nH]cc(C3CCN(c4nc(OC[C@H]5C[C@H]5C#N)nc(C(=O)NCC(F)(F)F)n4)CC3)c12 [Example 380, 4-{[(1S,2R)-2-cyanocyclopropyl]methoxy}-6-[4-(4-methoxy-1H-pyrrolo[2,3-b]pyridin-3-yl)piperidin-1-yl]-N-(2,2,2-trifluoroethyl)-1,3,5-triazine-2-carboxamide]
15.5 nM | N#C[C@@H]1C[C@@H]1COc1nc(C(=O)NC23CC(C2)C3)cc(N2CCC(c3n[nH]c4ncccc34)C(F)C2)n1 (single isomer, unassigned) [Example 74]
154 nM | C[C@H](CO)NC(=O)c1cc(N2CCC(c3n[nH]c4ncccc34)CC2)nc(OC[C@@H]2CCOC2)n1 [Example 382, N-[(2R)-1-hydroxypropan-2-yl]-6-[4-(1H-pyrazolo[3,4-b]pyridin-3-yl)piperidin-1-yl]-2-[(3R)-tetrahydrofuran-3-ylmethoxy]pyrimidine-4-carboxamide]
37 nM | CCNC(=O)c1cc(N2CCC(COc3cc(C#N)cnc3N)CC2)nc(O[C@H](C)COC)n1 [Example 21, 6-(4-{[(2-amino-5-cyanopyridin-3-yl)oxy]methyl}piperidin-1-yl)-N-ethyl-2-{[(2R)-1-methoxypropan-2-yl]oxy}pyrimidine-4-carboxamide]
61.8 nM | N#C[C@@H]1C[C@@H]1COc1nc(C(=O)NC23CC(C2)C3)nc(N2CCC(COc3cncnc3N)CC2)n1 [Example 66, 4-(4-{[(4-aminopyrimidin-5-yl)oxy]methyl}piperidin-1-yl)-N-(bicyclo[1.1.1]pent-1-yl)-6-{[(1S,2R)-2-cyanocyclopropyl]methoxy}-1,3,5-triazine-2-carboxamide]
42.8 nM | CS(=O)(=O)COc1cnc2[nH]nc(C3CCN(c4cc(C(=O)NC56CC(C5)C6)nc(OC[C@H]5C[C@H]5C#N)n4)CC3)c2c1 [Example 77, N-(bicyclo[1.1.1]pent-1-yl)-2-{[(1S,2R)-2-cyanocyclopropyl]methoxy}-6-(4-{5-[(methylsulfonyl)methoxy]-1H-pyrazolo[3,4-b]pyridin-3-yl}piperidin-1-yl)pyrimidine-4-carboxamide]
14.9 nM | COCCNC(=O)c1cc(N2CCC(c3ccc(N)c(C(N)=O)n3)CC2)nc(O[C@H](C)COC)n1 [Example 7, 6-[4-(5-amino-6-carbamoylpyridin-2-yl)piperidin-1-yl]-N-(2-methoxyethyl)-2-{[(2R)-1-methoxypropan-2-yl]oxy}pyrimidine-4-carboxamide]
38.7 nM | N#C[C@@H]1C[C@@H]1COc1nc(C(=O)NC23CC(C2)C3)cc(N2CCC(COc3cncnc3N)C(F)(F)C2)n1 (single isomer, unassigned) [Example 62]
23.4 nM | N#C[C@@H]1C[C@@H]1COc1nc(C(=O)NCC(F)(F)F)cc(N2CCC(COc3cncnc3N)CC2)n1 [Example 33, 6-(4-{[(4-aminopyrimidin-5-yl)oxy]methyl}piperidin-1-yl)-2-{[(1S,2R)-2-cyanocyclopropyl]methoxy}-N-(2,2,2-trifluoroethyl) pyrimidine-4-carboxamide]
12.4 nM | COC[C@@H](C)Oc1nc(C(=O)NC2(C#N)CCC2)cc(N2CCC(c3n[nH]c4ncccc34)CC2)n1 [Example 14, N-(1-cyanocyclobutyl)-2-{[(2R)-1-methoxypropan-2-yl]oxy}-6-[4-(1H-pyrazolo[3,4-b]pyridin-3-yl)piperidin-1-yl]pyrimidine-4-carboxamide]
5.77 nM | COC[C@@H](C)Oc1nc(C(=O)NC2CCC2)nc(N2CCC(c3ccc(N)c(C(N)=O)n3)CC2)n1 [Example 40, 4-[4-(5-amino-6-carbamoylpyridin-2-yl)piperidin-1-yl]-N-cyclobutyl-6-{[(2R)-1-methoxypropan-2-yl]oxy}-1,3,5-triazine-2-carboxamide]
